Read-outs that look alike come from different tables or passages of the source.
Test system: HIV-1 (NL4-3)
Assay: Plaque reduction assay (drug susceptibility) in HT4-6C cells infected with HIV-1 NL4-3
Type: cell-based
Conditions: for IC50: Human immunodeficiency virus 1, NL43, 72 h
Text: Measurement of Inhibition Effect Against Human Immunodeficiency Virus (HIV)
The compounds of formula 1 protect cells from the cytopathic effects of HIV infection.
Cells. The T-lymphoblastoid cell line CEM was used in this study to propagate HIV. The cells were maintained in RPMI 1640 growth medium supplemented with 10% fetal bovine serum plus antibiotics. The CD4-expressing cell line used for HIV plaque assays, HT4-6C, was made by transforming HeLa cells with the human CD4 gene as described in Chesebro and Wehrly, J. Virology, 62(10), 3779-3788 (1988). These cells were grown in Dulbecco modified eagle medium (DMEM) containing 10% fetal bovine serum plus antibiotics.
Virus propagation. The laboratory strain of HIV-1 (NL4-3) was grown in CEM cells. Virus stocks were prepared from cleared lysates of concentrated infected cells. At peak cytopathic effect (generally 5 days post-infection) culture supernatants were harvested and stored at −80° C. Viral infectivity titers were determined in threefold endpoint dilution assays conducted in CEM cells (six wells per dilution). The 50% tissue culture infective dose (TCID50) was calculated using the Reed and Muench equation.
Plaque titration using HT4-6C. Cells are seeded into 24-well multiwells at 5×10^4 cells per well and incubated overnight at 37° C. in growth medium (DMEM containing 10% fetal bovine serum plus antibiotics). Monolayers were infected with 10-fold dilutions of cell-free NL4-3 virus in 0.2 ml of DMEM and were incubated for 1 h at 37° C. to allow virus adsorption. Following this, 0.8 ml of DMEM containing 5% fetal bovine serum plus antibiotics was added to each well, and the cultures were incubated at 37° C. for 2 to 3 days. The monolayers were fixed with a 10% formaldehyde solution in phosphate-buffered saline and stained with 0.25% crystal violet in order to visualize virus plaques. Individual foci of multinucleated giant cells (plaques) are obvious when this staining procedure was used. Virus titers were evaluated from plaque numbers and were expressed as PFU per milliliter.
Drug susceptibility assays. Plaque reduction assays were performed by infecting monolayers of HT4-6C cells with 100 to 300 PFU of virus per well in 24-well microdilution plates as described above. Half-log concentrations of inhibitor were added to the culture medium (DMEM containing 5% fetal bovine serum plus antibiotics), and cultures were incubated for 3 days at 37° C. prior to fixation and staining as described above. ID50s were derived from plots of percentage of plaque reduction versus inhibitor concentration. See Larder et al., Antimicrob Agents Chemother, 34(3), 436-41 (March 1990).

[1] = plaque reduction, HT4-6C cell monolayers, 100 to 300 PFU of virus per well, 3 days at 37° C., read-out: ID50 (the source's name)
[2] = plaque reduction, HT4-6C cell monolayers, 100 to 300 PFU of virus per well, 3 days at 37° C.

Row | Compound | IC50 [1] [µM] | ID25 [2] [µM] | IC50 (read-out: ID50 (μM)) [µM]
1 | Nc1ncc2ncn(CC3(OCP(=O)(O)O)CC3)c2n1 [Compound 9, ({1-[(2-amino-9H-purin-9-yl)methyl]cyclopropyl}oxy)methylphosphonic acid] | > 100 | <10 | 
2 | CC1CC1(Cn1cnc2cnc(N)nc21)OCP(=O)(OCOC(=O)C(C)(C)C)OCOC(=O)C(C)(C)C (centres unmarked) [Compound 106, 3-[({1-[(2-amino-9H-purin-9-yl)methyl]-2-methylcyclopropyl}oxy)methyl]-8,8-dimethyl-3,7-dioxo-2,4,6-trioxa-3λ^5-phosphanon-1-yl pivalate] | < 100 | <1.0 | 
3 | CC1CC1(Cn1cnc2c(N)ncnc21)OCP(=O)(O)O (centres unmarked) [Compound 103, ({1-[(6-amino-9H-purin-9-yl)methyl]-2-methylcyclopropyl}oxy)methylphosphonic acid] | > 100 | <10 | 
4 | CC(C)(C)C(=O)OCOP(=O)(COC1(Cn2cnc3cnc(N)nc32)CC1)OCOC(=O)C(C)(C)C [Compound 10, 3-[({1-[(2-amino-9H-purin-9-yl)methyl]cyclopropyl}oxy)methyl]-8,8-dimethyl-3,7-dioxo-2,4,6-trioxa-3λ^5-phosphanon-1-yl pivalate] |  | <0.1 | < 10
5 | CC(C)(C)C(=O)OCOP(=O)(COC1(Cn2cnc3c(O)nc(N)nc32)CC1)OCOC(=O)C(C)(C)C [Compound 6, 3-[({1-[(2-amino-6-hydroxy-9H-purin-9-yl)methyl]cyclopropyl}oxy)methyl]-8,8-dimethyl-3,7-dioxo-2,4,6-trioxa-3λ^5-phosphanon-1-yl pivalate] | < 10 | <0.1 | 
6 | Nc1nc(O)c2ncn(CC3(OCP(=O)(O)O)CC3)c2n1 [Compound 5, ({1-[(2-amino-6-hydroxy-9H-purin-9-yl)methyl]cyclopropyl}oxy)methylphosphonic acid] | ~100 | <10 | 
7 | CC1CC1(Cn1cnc2cnc(N)nc21)OCP(=O)(O)O (centres unmarked) [Compound 98, ({1-[(2-amino-9H-purin-9-yl)methyl]-2-methylcyclopropyl}oxy)methylphosphonic acid] | > 100 | <200 | 
